# Values quoted from earlier work, collected in US4528378A, “Substituted 3,4-diamino-1,2,5-thiadiazoles having histamine H2 -receptor antagonist activity” (Bristol-Myers Company, priority 1984, dated 1985).
# Tested on: peptic ulcer disease
# Details: Gray et al., Lancet, 1, 8001 (1977)
smiles,measurement,value
CN/C(=N/CCSCc1nc[nH]c1C)NC#N [cimetidine],clinical efficacy in treatment of peptic ulcer disease,effective therapeutic agent in the treatment of peptic ulcer disease
